Test results from patent US20220185818A1, “PYRROLOHETEROCYCLIC DERIVATIVE, PREPARATION METHOD THEREFOR, AND APPLICATION THEREOF IN MEDICINE” (Jiangsu Hengrui Medicine Co., Ltd., priority 2019, published 2022).

Assays:
ERK1 = biological target: T1, ERK1 (Homo sapiens, UniProt P27361); test: ERK1 enzyme activity test (ADP-Glo Kinase Assay); type: biochemical; conditions: read-out: IC50 value of the inhibition on ERK1 enzyme activity
T1 construct: purchased R&D 1879-KS-010
Experimental: (§1) The purpose of this experiment is to detect the inhibitory ability of the compounds on the ERK1 enzyme activity, and evaluate the in vitro activity of the compounds based on the IC50. The ADP-Glo™ Kinase Assay Kit is used in this experiment. Under the action of the enzyme, the substrate is phosphorylated and ADP is produced at the same time. The ADP-Glo reagent is added to remove the unreacted ATP in the reaction system, and the ADP produced by the reaction is detected with the kinase detection reagent. In the presence of the compound, the inhibition rate of the compound is calculated by measuring the signal value.
(§2) ATP was diluted to 300 μM with the buffer. The compound was dissolved in DMSO to prepare a stock solution with an initial concentration of 20 mM, and then Bravo (SGC120TH34702, Agilent Technologies) was used to dilute the stock solution to desired concentrations. Finally, a 30 μL of a mixed solution of enzyme and substrate, and 1 μL, of different concentrations of the compound (the initial concentration is 50 μM, 4-fold dilution) were added to each well of the 384-well plate, and the plate was incubated at 30° C. for 10 minutes, and finally 1 μL of 300 μM ATP solution was added to each well, and the plate was incubated at 30° C. for 2 hours. Then 5 μL of ADP-Glo was added, and the plate was incubated at 30° C. for 40 minutes. Then 10 μL of Kinase detection buffer was added, and the plate was incubated at 30° C. for 40 minutes. The 384-well plate was taken out and placed in a microplate reader (BMG labtech, PHERAstar FS), and the chemiluminescence was measured by the microplate reader.
(§3) Microsoft Excel, Graphpad Prism 5 was used to process and analyze the data.

ERK2 = biological target: T2, ERK2 (Homo sapiens, UniProt P28482); test: ERK2 enzyme activity test (ADP-Glo Kinase Assay); type: biochemical; conditions: read-out: IC50 value of the inhibition on ERK2 enzyme activity
T2 construct: purchased R&D 1879-KS-010
T2 sequence (P28482 2-360 limits assumed): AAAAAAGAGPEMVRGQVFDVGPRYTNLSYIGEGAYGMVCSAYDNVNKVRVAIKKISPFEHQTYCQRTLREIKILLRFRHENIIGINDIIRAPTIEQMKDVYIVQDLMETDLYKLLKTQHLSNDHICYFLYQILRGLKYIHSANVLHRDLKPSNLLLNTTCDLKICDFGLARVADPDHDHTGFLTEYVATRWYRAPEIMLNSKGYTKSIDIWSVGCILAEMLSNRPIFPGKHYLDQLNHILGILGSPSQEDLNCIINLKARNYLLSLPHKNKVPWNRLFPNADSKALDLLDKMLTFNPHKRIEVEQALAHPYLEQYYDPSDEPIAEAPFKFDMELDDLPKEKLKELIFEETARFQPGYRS
Experimental: as §1, with “ERK2” for “ERK1”, “by” for “with”
as §2, with “to 500” for “to 300”, “a 3” for “a 30”, “1 μL” for “1 μL,”, “of 500” for “of 300”, “of kinase” for “of Kinase”
as §3

Colo205 cells = test: In vitro proliferation inhibition test on Colo205 tumor cells (CellTiter-Glo); type: cell-based; conditions: Homo sapiens, COLO 205, 72 h; 3 days of culture, CTG; read-out: IC50 value of the inhibition on in vitro Colo205 tumor cell proliferation
Experimental: The purpose of this experiment is to test the inhibitory activity of the compounds on the proliferation of Colo205 cells (CCL-222, ATCC) in vitro. The cells were treated in vitro with different concentrations of the compounds. After 3 days of culture, the cell proliferation was tested with CTG (CellTiter-Glo® Luminescent Cell Viability Assay, Promega, Catalog No. G7573) reagent, and the in vitro activity of the compounds was evaluated according to the IC50 value.
In the following, taking the in vitro proliferation inhibition test method of Colo205 cells as an example, the method in the present disclosure for testing the in vitro proliferation inhibitory activity of the compounds of the present disclosure is described. This method is also applicable to, but not limited to, the in vitro proliferation inhibitory activity test on other tumor cells.
Colo205 cells were digested, centrifuged and then resuspended. The single cell suspension was mixed well, and the density of viable cells was adjusted to 5.0×10^4 cells/ml with cell culture medium (RPMI1640+2% FBS), and 95 μl/well was added to a 96-well cell culture plate. Only 100 μl medium was added to the peripheral wells of the 96-well plate. The culture plate was incubated in an incubator for 24 hours (37° C., 5% CO2).
The compound was dissolved in DMSO and prepared into a stock solution with an initial concentration of 20 mM. The initial concentration of the small molecule compound was 2 mM, and then 4-fold diluted into 9 points, and the 10th point is DMSO. Another 96-well plate was taken and 90 μl of cell culture medium (RPMI1640+2% FBS) was added to each well, then 10 μl of different concentrations of the test sample was added to each well. The mixture was mixed well, and then 5 μL of different concentrations of the test sample was added to the cell culture plate with duplicate well for each sample. The culture plate was incubated in an incubator for 3 days (37° C., 5% CO2). The 96-well cell culture plate was taken out, 50 μL CTG solution was added to each well, and the plate was incubated for 10 minutes at room temperature. In a microplate reader (BMG labtech, PHERAstar FS), chemiluminescence was measured with the microplate reader.
as §3

T1 sequence (P27361 whole entry): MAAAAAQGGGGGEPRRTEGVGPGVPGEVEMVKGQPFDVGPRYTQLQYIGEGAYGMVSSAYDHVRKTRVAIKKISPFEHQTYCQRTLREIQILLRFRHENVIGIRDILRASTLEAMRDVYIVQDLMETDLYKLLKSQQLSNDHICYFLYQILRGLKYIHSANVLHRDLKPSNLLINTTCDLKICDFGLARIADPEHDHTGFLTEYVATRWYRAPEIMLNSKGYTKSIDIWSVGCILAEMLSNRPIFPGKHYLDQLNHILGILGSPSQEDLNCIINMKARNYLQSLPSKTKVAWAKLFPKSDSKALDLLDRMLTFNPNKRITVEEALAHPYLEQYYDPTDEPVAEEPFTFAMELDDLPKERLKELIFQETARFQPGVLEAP

| SMILES | IC50 (ERK1) [nM] | IC50 (ERK2) [nM] | IC50 (Colo205 cells) [nM] |
| --- | --- | --- | --- |
| COc1cc(F)cc([C@@H](CO)N2Cc3cc(-c4nc(Nc5ccnn5C)ncc4C)cn3C2=O)c1 [Example 1, (S)-2-(1-(3-Fluoro-5-methoxyphenyl)-2-hydroxyethyl)-6-(5-methyl-2-((1-methyl-1H-pyrazol-5-yl)amino)pyrimidin-4-yl)-1H-pyrrolo[1,2-c]imidazol-3(2H)-one] | 9 | 2 | 90 |
| Cn1nccc1Nc1ncc(Cl)c(-c2cc3n(c2)C(=O)N([C@H](CO)c2cccc(Cl)c2)C3)n1 [Example 2, (S)-6-(5-Chloro-2-((1-methyl-1H-pyrazol-5-yl)amino)pyrimidin-4-yl)-2-(1-(3-chlorophenyl)-2-hydroxyethyl)-1H-pyrrolo[1,2-c]imidazol-3(2H)-one] | – | 3 | 32 |
| O=C1N([C@H](CO)c2cccc(Cl)c2)Cc2cc(-c3nc(NC4CCOCC4)ncc3Cl)cn21 [Example 4, (S)-6-(5-Chloro-2-((tetrahydro-2H-pyran-4-yl)amino)pyrimidin-4-yl)-2-(1-(3-chlorophenyl)-2-hydroxyethyl)-1H-pyrrolo[1,2-c]imidazol-3(2H)-one] | – | 6 | 82 |
| C[C@@H](CO)Nc1ncc(Cl)c(-c2cc3n(c2)C(=O)N([C@H](CO)c2cccc(Cl)c2)C3)n1 [Example 5, 6-(5-Chloro-2-(((S)-1-hydroxypropan-2-yl)amino)pyrimidin-4-yl)-2-((S)-1-(3-chlorophenyl)-2-hydroxyethyl)-1H-pyrrolo[1,2-c]imidazol-3(2H)-one] | 10 | – | 81 |
| Cc1cnc(Nc2ccnn2C)nc1-c1cc2n(c1)C(=O)N([C@H](CO)c1ccc(F)c(Cl)c1)C2 [Example 6, (S)-2-(1-(3-Chloro-4-fluorophenyl)-2-hydroxyethyl)-6-(5-methyl-2-((1-methyl-1H-pyrazol-5-yl)amino)pyrimidin-4-yl)-1H-pyrrolo[1,2-c]imidazol-3(2H)-one] | 14 | 10 | 74 |
| O=C1N([C@H](CO)c2cccc(Cl)c2)Cc2cc(-c3nc(NC4CC(O)C(F)C4)ncc3Cl)cn21 (stereo partly drawn) [Example 7, 6-(5-Chloro-2-((3-fluoro-4-hydroxycyclopentyl)amino)pyrimidin-4-yl)-2-((S)-1-(3-chlorophenyl)-2-hydroxyethyl)-1H-pyrrolo[1,2-c]imidazol-3(2H)-one] | – | 63 | 158 |
| Cc1cnc(Nc2ccnn2C)nc1-c1cc2n(c1)C(=O)N([C@H](CO)c1cccc(Cl)c1)CC2 [Example 9, (S)-2-(1-(3-Chlorophenyl)-2-hydroxyethyl)-6-(5-methyl-2-((1-methyl-1H-pyrazol-5-yl)amino)pyrimidin-4-yl)-3,4-dihydropyrrolo[1,2-c]pyrimidin-1(2H)-one] | 12 | – | 77 |
| Cc1cnc(Nc2ccnn2C)nc1-c1cc2n(c1)C(=O)N([C@H](CN)c1cccc(Cl)c1)C2 [Example 11, (S)-2-(2-Amino-1-(3-chlorophenyl)ethyl)-6-(5-methyl-2-((1-methyl-1H-pyrazol-5-yl)amino)pyrimidin-4-yl)-1H-pyrrolo[1,2-c]imidazol-3(2H)-one] | – | 18 | – |

Next, values leading:

| IC50 (ERK1) [nM] | IC50 (ERK2) [nM] | IC50 (Colo205 cells) [nM] | SMILES |
| --- | --- | --- | --- |
| – | 45 | – | Cc1cnc(Nc2ccnn2C)nc1-c1cc2n(c1)C(=O)N([C@H](C)c1cccc(Cl)c1)C2 [Example 12, (R)-2-(1-(3-Chlorophenyl)ethyl)-6-(5-methyl-2-((1-methyl-1H-pyrazol-5-yl)amino)pyrimidin-4-yl)-1H-pyrrolo[1,2-c]imidazol-3(2H)-one] |
| 2 | 2 | 99 | CNC[C@H](c1cccc(Cl)c1)N1Cc2cc(-c3nc(Nc4ccnn4C)ncc3C)cn2C1=O [Example 13, (S)-2-(1-(3-Chlorophenyl)-2-(methylamino)ethyl)-6-(5-methyl-2-((1-methyl-1H-pyrazol-5-yl)amino)pyrimidin-4-yl)-1H-pyrrolo[1,2-c]imidazol-3(2H)-one] |
| – | 5 | 92 | Cc1cnc(Nc2ccnn2C)nc1-c1cc2n(c1)C(=O)N([C@H](CO)c1ccc(Cl)c(F)c1)C2 [Example 14, (S)-2-(1-(4-Chloro-3-fluorophenyl)-2-hydroxyethyl)-6-(5-methyl-2-((1-methyl-1H-pyrazol-5-yl)amino)pyrimidin-4-yl)-1H-pyrrolo[1,2-c]imidazol-3(2H)-one] |
| 70 | 44 | 180 | Cn1nccc1Nc1nccc(-c2cc3n(c2)C(=O)N([C@H](CO)c2ccc(F)c(Cl)c2)C3)n1 [Example 16, (S)-2-(1-(3-Chloro-4-fluorophenyl)-2-hydroxyethyl)-6-(2-((1-methyl-1H-pyrazol-5-yl)amino)pyrimidin-4-yl)-1H-pyrrolo[1,2-c]imidazol-3(2H)-one] |
| – | 16 | – | Cc1cnc(Nc2ccnn2C)nc1-c1cc2n(c1)C(=O)N(Cc1ccc(F)c(F)c1)C2 [Example 18, 2-(3,4-Difluorobenzyl)-6-(5-methyl-2-((1-methyl-1H-pyrazol-5-yl)amino)pyrimidin-4-yl)-1H-pyrrolo[1,2-c]imidazol-3(2H)-one] |
| 24 | 20 | 101 | Cn1nccc1Nc1nccc(-c2cc3n(c2)C(=O)N([C@H](CO)c2cccc(F)c2)C3)n1 [Example 19, (S)-2-(1-(3-Fluorophenyl)-2-hydroxyethyl)-6-(2-((1-methyl-1H-pyrazol-5-yl)amino)pyrimidin-4-yl)-1H-pyrrolo[1,2-c]imidazol-3(2H)-one] |
| 67 | 45 | 120 | Cn1nccc1Nc1nccc(-c2cc3n(c2)C(=O)N([C@H](CO)c2ccc(Cl)cc2)C3)n1 [Example 21, (S)-2-(1-(4-Chlorophenyl)-2-hydroxyethyl)-6-(2-((1-methyl-1H-pyrazol-5-yl)amino)pyrimidin-4-yl)-1H-pyrrolo[1,2-c]imidazol-3(2H)-one] |
